Test results published in ChEMBL document CHEMBL1944554, “Structure-activity relationships for the interaction of 5,10-dihydroindeno[1,2-b]indole derivatives with human and bovine carbonic anhydrase isoforms I, II, III, IV and VI” (Eur J Med Chem, 2012).

Legend:
[1] = molecular target: T1, Carbonic anhydrase 3 (Bos taurus, UniProt Q3SZX4); assay: Inhibition of bovine carbonic anhydrase 3 using 4-nitrophenylacetate as substrate after 3 mins using spectrophotometry by Lineweaver-Burk plot analysis
T1 sequence (Q3SZX4 whole entry): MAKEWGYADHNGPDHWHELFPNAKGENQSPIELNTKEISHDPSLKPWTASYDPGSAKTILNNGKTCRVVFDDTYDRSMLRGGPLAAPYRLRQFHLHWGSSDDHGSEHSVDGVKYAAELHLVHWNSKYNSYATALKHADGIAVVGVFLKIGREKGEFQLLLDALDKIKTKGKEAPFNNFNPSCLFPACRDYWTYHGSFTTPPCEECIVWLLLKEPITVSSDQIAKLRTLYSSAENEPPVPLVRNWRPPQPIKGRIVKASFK

[2] = molecular target: Carbonic anhydrase 6 (Homo sapiens, UniProt P23280); assay: Inhibition of human carbonic anhydrase 6 using 4-nitrophenylacetate as substrate after 3 mins using spectrophotometry by Lineweaver-Burk plot analysis
[3] = molecular target: Carbonic anhydrase 1 (Homo sapiens, UniProt P00915); assay: Inhibition of human carbonic anhydrase 1 using 4-nitrophenylacetate as substrate after 3 mins using spectrophotometry by Lineweaver-Burk plot analysis
[4] = molecular target: Carbonic anhydrase 4 (Homo sapiens, UniProt P22748); assay: Inhibition of human carbonic anhydrase 4 using 4-nitrophenylacetate as substrate after 3 mins using spectrophotometry by Lineweaver-Burk plot analysis
[5] = molecular target: Carbonic anhydrase 2 (Homo sapiens, UniProt P00918); assay: Inhibition of human carbonic anhydrase 2 using 4-nitrophenylacetate as substrate after 3 mins using spectrophotometry by Lineweaver-Burk plot analysis

Chain of Carbonic anhydrase 6 (P23280 whole entry): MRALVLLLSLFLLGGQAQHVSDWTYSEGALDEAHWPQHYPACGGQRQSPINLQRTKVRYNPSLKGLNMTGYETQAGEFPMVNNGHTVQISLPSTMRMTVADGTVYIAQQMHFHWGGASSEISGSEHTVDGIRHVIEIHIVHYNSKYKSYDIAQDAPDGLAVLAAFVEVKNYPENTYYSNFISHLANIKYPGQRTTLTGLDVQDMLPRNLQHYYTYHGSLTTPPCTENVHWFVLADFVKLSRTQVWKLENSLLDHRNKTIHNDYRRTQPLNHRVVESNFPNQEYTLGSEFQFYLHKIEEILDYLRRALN
Chain of Carbonic anhydrase 4 (P22748 whole entry): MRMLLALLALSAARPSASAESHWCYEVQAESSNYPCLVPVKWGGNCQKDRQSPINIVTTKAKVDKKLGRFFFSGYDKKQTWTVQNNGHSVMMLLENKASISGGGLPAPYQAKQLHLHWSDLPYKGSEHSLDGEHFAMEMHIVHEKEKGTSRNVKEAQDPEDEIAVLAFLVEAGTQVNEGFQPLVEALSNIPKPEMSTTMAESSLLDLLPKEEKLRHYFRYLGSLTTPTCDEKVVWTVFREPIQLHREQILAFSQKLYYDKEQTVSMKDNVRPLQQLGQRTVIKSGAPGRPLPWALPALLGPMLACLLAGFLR
Chain of Carbonic anhydrase 1 (P00915 whole entry): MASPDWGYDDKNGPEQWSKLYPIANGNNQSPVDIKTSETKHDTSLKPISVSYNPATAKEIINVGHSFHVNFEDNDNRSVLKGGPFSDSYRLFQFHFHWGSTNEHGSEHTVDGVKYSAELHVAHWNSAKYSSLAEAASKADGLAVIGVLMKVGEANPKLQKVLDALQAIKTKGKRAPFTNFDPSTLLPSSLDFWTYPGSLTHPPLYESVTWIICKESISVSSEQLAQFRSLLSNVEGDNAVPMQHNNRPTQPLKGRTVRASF

Row | Compound | Ki [1] | also measured
1 | Oc1cccc2c1Cc1c-2[nH]c2ccccc12 | 8.84 µM | –
2 | CCOc1ccc2nc(S(N)(=O)=O)sc2c1 [ETHOXZOLAMIDE] | 9.44 µM | –
3 | COc1cccc2c1Cc1c-2[nH]c2ccccc12 | 16.3 µM | –
4 | c1ccc2c3c([nH]c2c1)-c1cc2c(cc1C3)OCO2 | 12.7 µM | –
5 | COc1cc2c(cc1OC)-c1[nH]c3ccccc3c1C2 | 15.8 µM | –
6 | Oc1cc2c(cc1O)-c1[nH]c3ccccc3c1C2 | 5.17 µM | –
7 | c1ccc2[nH]ccc2c1 [INDOLE] | 17.6 µM | Ki [2]: 3.63 µM; Ki [3]: 27.4 µM; Ki [4]: 2.33 µM; Ki [5]: 32.5 µM
8 | Fc1ccc2c(c1)Cc1c-2[nH]c2ccccc12 | 8.63 µM | –
9 | Oc1ccc(O)c2c1Cc1c-2[nH]c2ccccc12 | 4.34 µM | –
10 | Oc1ccc2c(c1)-c1[nH]c3ccccc3c1C2 | 9.42 µM | –
11 | Clc1ccc2c(c1)Cc1c-2[nH]c2ccccc12 | 8.72 µM | –
12 | Brc1ccc2c(c1)Cc1c-2[nH]c2ccccc12 | 8.51 µM | –
13 | COc1ccc2c(c1)-c1[nH]c3ccccc3c1C2 | 15.6 µM | –
14 | Oc1ccc2c(c1)Cc1c-2[nH]c2ccccc12 | 9.08 µM | –
15 | COc1cc2c(c(OC)c1)-c1[nH]c3ccccc3c1C2 | 14.3 µM | –
16 | c1ccc2c(c1)Cc1c-2[nH]c2ccccc12 | 17.8 µM | –
17 | COc1ccc2c(c1)Cc1c-2[nH]c2ccccc12 | 14.9 µM | –
18 | COc1ccccc1OC [1,2-DIMETHOXYBENZENE] | 4.24 µM | –
19 | COc1ccc2c(c1OC)Cc1c-2[nH]c2ccccc12 | 10.3 µM | –
20 | NS(=O)(=O)Cc1noc2ccccc12 [ZONISAMIDE] | 8.51 µM | –
21 | Oc1cccc2c1-c1[nH]c3ccccc3c1C2 | 9.62 µM | –
22 | COc1ccc(OC)c2c1Cc1c-2[nH]c2ccccc12 | 11.2 µM | –
23 | Oc1ccccc1O [CATECHOL] | 3.48 µM | –
24 | C[C@]12CC[C@@H]3c4ccc(OS(N)(=O)=O)cc4CC[C@H]3[C@@H]1CCC2=O [EMATE] | 12.4 µM | Ki [2]: 1.86 µM; Ki [3]: 12.3 µM; Ki [4]: 1.04 µM
25 | Oc1ccc2c(c1O)Cc1c-2[nH]c2ccccc12 | 2.13 µM | –
26 | Oc1cc(O)c2c(c1)Cc1c-2[nH]c2ccccc12 | 4.63 µM | –
